Test results taken from patent US20040063662A1, “Selenophene anti-tumor agents” (priority 1996, published 2004).

Experiments:
[1] = test system: CCRF-CEM; assay: NCI human tumor cell panel: CCRF-CEM (Leukemia); format: cell-based; conditions: Leukemia; for GI50: read-out: Log10 GI50 (converted); for IC (TGI): read-out: Log10 TGI (converted)
[2] = test system: MOLT-4; assay: NCI human tumor cell panel: MOLT-4 (Leukemia); format: cell-based; conditions: MOLT-4, Leukemia; for GI50: read-out: Log10 GI50 (converted); for IC (TGI): read-out: Log10 TGI (converted)
[3] = test system: SR; assay: NCI human tumor cell panel: SR (Leukemia); format: cell-based; conditions: Leukemia; for GI50: read-out: Log10 GI50 (converted); for IC (TGI): read-out: Log10 TGI (converted)
[4] = test system: A549/ATCC; assay: NCI human tumor cell panel: A549/ATCC (Non-Small Cell Lung Cancer); format: cell-based; conditions: Non-Small Cell Lung Cancer; for GI50: read-out: Log10 GI50 (converted); for IC (TGI): read-out: Log10 TGI (converted)
[5] = test system: HOP-62; assay: NCI human tumor cell panel: HOP-62 (Non-Small Cell Lung Cancer); format: cell-based; conditions: HOP-62, Non-Small Cell Lung Cancer; for GI50: read-out: Log10 GI50 (converted); for IC (TGI): read-out: Log10 TGI (converted)
[6] = test system: NCI-H23; assay: NCI human tumor cell panel: NCI-H23 (Non-Small Cell Lung Cancer); format: cell-based; conditions: NCI-H23, Non-Small Cell Lung Cancer; for GI50: read-out: Log10 GI50 (converted); for IC (TGI): read-out: Log10 TGI (converted)
[7] = test system: NCI-H322M; assay: cells; format: cell-based; conditions: Homo sapiens, Non-Small Cell Lung Cancer; for GI50: read-out: Log10 GI50 (converted); for IC (TGI): read-out: Log10 TGI (converted)
[8] = test system: NCI-H460; assay: NCI human tumor cell panel: NCI-H460 (Non-Small Cell Lung Cancer); format: cell-based; conditions: NCI-H460, Non-Small Cell Lung Cancer; for GI50: read-out: Log10 GI50 (converted); for IC (TGI): read-out: Log10 TGI (converted)
[9] = test system: HCT-116; assay: NCI human tumor cell panel: HCT-116 (Colon Cancer); format: cell-based; conditions: HCT-116, Colon Cancer; for GI50: read-out: Log10 GI50 (converted); for IC (TGI): read-out: Log10 TGI (converted)
[10] = test system: HT29; assay: NCI human tumor cell panel: HT29 (Colon Cancer); format: cell-based; conditions: HT-29, HT29, Colon Cancer; for GI50: read-out: Log10 GI50 (converted); for IC (TGI): read-out: Log10 TGI (converted)
[11] = test system: SF-295; assay: NCI human tumor cell panel: SF-295 (CNS Cancer); format: cell-based; conditions: SF-295, CNS Cancer; for GI50: read-out: Log10 GI50 (converted); for IC (TGI): read-out: Log10 TGI (converted)
[12] = test system: SF-539; assay: NCI human tumor cell panel: SF-539 (CNS Cancer); format: cell-based; conditions: SF-539, CNS Cancer; for GI50: read-out: Log10 GI50 (converted); for IC (TGI): read-out: Log10 TGI (converted)
[13] = test system: SNB-19; assay: NCI human tumor cell panel: SNB-19 (CNS Cancer); format: cell-based; conditions: SNB-19, CNS Cancer; for GI50: read-out: Log10 GI50 (converted); for IC (TGI): read-out: Log10 TGI (converted)
[14] = test system: U251; assay: NCI human tumor cell panel: U251 (CNS Cancer); format: cell-based; conditions: U-251, U251, CNS Cancer; for GI50: read-out: Log10 GI50 (converted); for IC (TGI): read-out: Log10 TGI (converted)
[15] = test system: MALME-3M; assay: NCI human tumor cell panel: MALME-3M (Melanoma); format: cell-based; conditions: MALME-3M, Melanoma; for GI50: read-out: Log10 GI50 (converted); for IC (TGI): read-out: Log10 TGI (converted)
[16] = test system: M14; assay: NCI human tumor cell panel: M14 (Melanoma); format: cell-based; conditions: M14, Melanoma; for GI50: read-out: Log10 GI50 (converted); for IC (TGI): read-out: Log10 TGI (converted)
[17] = test system: SK-MEL-28; assay: NCI human tumor cell panel: SK-MEL-28 (Melanoma); format: cell-based; conditions: SK-MEL-28, Melanoma; for GI50: read-out: Log10 GI50 (converted); for IC (TGI): read-out: Log10 TGI (converted)
[18] = test system: SK-MEL-5; assay: NCI human tumor cell panel: SK-MEL-5 (Melanoma); format: cell-based; conditions: SK-MEL-5, Melanoma; for GI50: read-out: Log10 GI50 (converted); for IC (TGI): read-out: Log10 TGI (converted)
[19] = test system: UACC-257; assay: NCI human tumor cell panel: UACC-257 (Melanoma); format: cell-based; conditions: UACC-257, Melanoma; for GI50: read-out: Log10 GI50 (converted); for IC (TGI): read-out: Log10 TGI (converted)
[20] = test system: UACC-62; assay: NCI human tumor cell panel: UACC-62 (Melanoma); format: cell-based; conditions: UACC-62, Melanoma; for GI50: read-out: Log10 GI50 (converted); for IC (TGI): read-out: Log10 TGI (converted)
[21] = test system: OVCAR-3; assay: NCI human tumor cell panel: OVCAR-3 (Ovarian Cancer); format: cell-based; conditions: OVCAR-3, Ovarian Cancer; for GI50: read-out: Log10 GI50 (converted); for IC (TGI): read-out: Log10 TGI (converted)
[22] = test system: OVCAR-4; assay: NCI human tumor cell panel: OVCAR-4 (Ovarian Cancer); format: cell-based; conditions: OVCAR-4, Ovarian Cancer; for IC (TGI): read-out: Log10 TGI (converted)
[23] = test system: A498; assay: NCI human tumor cell panel: A498 (Renal Cancer); format: cell-based; conditions: A498, Renal Cancer; for GI50: read-out: Log10 GI50 (converted); for IC (TGI): read-out: Log10 TGI (converted)
[24] = test system: ACHN; assay: NCI human tumor cell panel: ACHN (Renal Cancer); format: cell-based; conditions: Renal Cancer; for GI50: read-out: Log10 GI50 (converted); for IC (TGI): read-out: Log10 TGI (converted)
[25] = test system: TK-10; assay: NCI human tumor cell panel: TK-10 (Renal Cancer); format: cell-based; conditions: TK-10, Renal Cancer; for GI50: read-out: Log10 GI50 (converted); for IC (TGI): read-out: Log10 TGI (converted)
[26] = test system: PC-3; assay: NCI human tumor cell panel: PC-3 (Prostate Cancer); format: cell-based; conditions: PC-3, Prostate Cancer; for GI50: read-out: Log10 GI50 (converted); for IC (TGI): read-out: Log10 TGI (converted)
[27] = test system: MCF7; assay: NCI human tumor cell panel: MCF7 (Breast Cancer); format: cell-based; conditions: MCF7, Breast Cancer; for GI50: read-out: Log10 GI50 (converted); for IC (TGI): read-out: Log10 TGI (converted)
[28] = test system: MCF7/ADR-RES; assay: NCI human tumor cell panel: MCF7/ADR-RES (Breast Cancer); format: cell-based; conditions: Breast Cancer; for GI50: read-out: Log10 GI50 (converted); for IC (TGI): read-out: Log10 TGI (converted)
[29] = test system: HS 578T; assay: NCI human tumor cell panel: HS 578T (Breast Cancer); format: cell-based; conditions: Breast Cancer; for GI50: read-out: Log10 GI50 (converted); for IC (TGI): read-out: Log10 TGI (converted)
[30] = test system: MDA-MB-435; assay: NCI human tumor cell panel: MDA-MB-435 (Breast Cancer); format: cell-based; conditions: MDA-MB-435, Breast Cancer; for GI50: read-out: Log10 GI50 (converted); for IC (TGI): read-out: Log10 TGI (converted)
[31] = test system: MDA-N; assay: NCI human tumor cell panel: MDA-N (Breast Cancer); format: cell-based; conditions: Breast Cancer; for GI50: read-out: Log10 GI50 (converted); for IC (TGI): read-out: Log10 TGI (converted)
[32] = test system: HOP-92; assay: NCI human tumor cell panel: HOP-92 (Non-Small Cell Lung Cancer); conditions: for GI50: HOP-92, read-out: Log10 GI50 (converted); for IC (TGI): HOP-92, read-out: Log10 TGI

## O=Cc1ccc(-c2ccc(-c3ccc(C=O)s3)[se]2)s1 [NSC 675345]
[1]
  GI50: > 100 µM
  IC (TGI): > 100 µM
[2]
  GI50: > 100 µM
  IC (TGI): > 100 µM
[3]
  GI50: > 100 µM
  IC (TGI): > 100 µM
[4]
  GI50: > 100 µM
  IC (TGI): > 100 µM
[5]
  GI50: 47.9 µM
  IC (TGI): > 100 µM
[6]
  GI50: 21.9 µM
  IC (TGI): > 100 µM
[7]
  GI50: > 100 µM
  IC (TGI): > 100 µM
[8]
  GI50: 0.813 µM
  IC (TGI): > 100 µM
[9]
  GI50: 4.07 µM
  IC (TGI): > 100 µM
[10]
  GI50: > 100 µM
  IC (TGI): > 100 µM
[11]
  GI50: 38.9 µM
  IC (TGI): > 100 µM
[12]
  GI50: > 100 µM
  IC (TGI): > 100 µM
[13]
  GI50: 31.6 µM
  IC (TGI): > 100 µM
[14]
  GI50: 2.29 µM
  IC (TGI): 21.4 µM
[15]
  GI50: > 100 µM
  IC (TGI): > 100 µM
[16]
  GI50: > 100 µM
  IC (TGI): > 100 µM
[17]
  GI50: > 100 µM
  IC (TGI): > 100 µM
[18]
  GI50: > 100 µM
  IC (TGI): > 100 µM
[19]
  GI50: 1.38 µM
  IC (TGI): > 100 µM
[20]
  GI50: 0.347 µM
  IC (TGI): 2.82 µM
[21]
  GI50: 2.19 µM
  IC (TGI): > 100 µM
[22]
  IC (TGI): > 100 µM
[23]
  GI50: 0.479 µM
  IC (TGI): 1.55 µM
[24]
  GI50: 77.6 µM
  IC (TGI): > 100 µM
[25]
  GI50: > 100 µM
  IC (TGI): > 100 µM
[26]
  GI50: > 100 µM
  IC (TGI): > 100 µM
[27]
  GI50: 0.724 µM
  IC (TGI): 5.62 µM
[28]
  GI50: > 100 µM
  IC (TGI): > 100 µM
[29]
  GI50: 67.6 µM
  IC (TGI): > 100 µM
[30]
  GI50: 58.9 µM
  IC (TGI): > 100 µM
[31]
  GI50: > 100 µM
  IC (TGI): > 100 µM
[32]
  GI50: 14.5 µM
  IC (TGI): 55 µM

## O=Cc1ccc(-c2ccc(-c3cccs3)[se]2)s1 [NSC 675346]
[1]
  GI50: > 100 µM
  IC (TGI): > 100 µM
[2]
  GI50: > 100 µM
  IC (TGI): > 100 µM
[3]
  GI50: > 100 µM
  IC (TGI): > 100 µM
[4]
  GI50: 55 µM
  IC (TGI): > 100 µM
[5]
  GI50: 64.6 µM
  IC (TGI): > 100 µM
[6]
  GI50: 14.5 µM
  IC (TGI): 58.9 µM
[7]
  GI50: 12.9 µM
  IC (TGI): > 100 µM
[8]
  GI50: 0.251 µM
  IC (TGI): > 100 µM
[9]
  GI50: 0.115 µM
  IC (TGI): > 100 µM
[10]
  GI50: > 100 µM
  IC (TGI): > 100 µM
[11]
  GI50: 21.4 µM
  IC (TGI): 69.2 µM
[12]
  GI50: 51.3 µM
  IC (TGI): > 100 µM
[13]
  GI50: 21.9 µM
  IC (TGI): 95.5 µM
[14]
  GI50: 0.0575 µM
  IC (TGI): 25.7 µM
[15]
  GI50: 34.7 µM
  IC (TGI): > 100 µM
[16]
  GI50: 28.2 µM
  IC (TGI): > 100 µM
[17]
  GI50: 44.7 µM
  IC (TGI): > 100 µM
[18]
  GI50: 46.8 µM
  IC (TGI): > 100 µM
[19]
  GI50: 0.0263 µM
  IC (TGI): 0.0832 µM
[20]
  GI50: < 0.01 µM
  IC (TGI): 0.0282 µM
[21]
  GI50: 0.0191 µM
  IC (TGI): 21.4 µM
[22]; read-out: Log10 GI50 (converted)
  GI50: 0.12 µM
[22]
  IC (TGI): 26.9 µM
[23]
  GI50: 0.145 µM
  IC (TGI): 0.295 µM
[24]
  GI50: 22.9 µM
  IC (TGI): > 100 µM
[25]
  GI50: 0.0631 µM
  IC (TGI): 0.417 µM
[26]
  GI50: 61.7 µM
  IC (TGI): > 100 µM
[27]
  GI50: 0.813 µM
  IC (TGI): > 100 µM
[28]
  GI50: 13.2 µM
  IC (TGI): 60.3 µM
[29]
  GI50: 23.4 µM
  IC (TGI): > 100 µM
[30]
  GI50: 28.2 µM
  IC (TGI): 87.1 µM
[31]
  GI50: > 100 µM
  IC (TGI): > 100 µM
[32]
  GI50: 18.6 µM
  IC (TGI): 70.8 µM
